The structures appear in SMILES notation. Read-outs that look alike come from different tables or passages of the source.

For data set [1] the following is noted: ether bond, 20-membered ring, PPh3/DIAD, THF.
For data set [2] the following is noted: ether bond, PPh3/DIAD, THF.
[3] abbreviates: from COC(=O)[C@@H](OC(C)(C)C)c1c(C)cc2nc(-c3cccc(-c4ccc(C)cc4O)c3)cn2c1N1CCC(C)(OCCOC[C@@H](C)O)CC1, 1.41 mM, 1.0 h.
The mark [4] stands for this setting: from COC(=O)[C@@H](OC(C)(C)C)c1c(C)c(C)c2nc(-c3cccc(-c4c(O)cc(C)cc4F)c3)cn2c1N1CCC(C)(OCCOC[C@@H](C)O)CC1, 6.7 mM, 1.0 h, 2 steps.
Setting [5] is: from COC(=O)[C@@H](OC(C)(C)C)c1c(C)c(C)c2nc(-c3cccc(-c4cc(F)ccc4O)c3)cn2c1N1CCC(C)(OCCOC[C@@H](C)O)CC1, 47.0 mM, 18.0 h.
Where [6] appears, read: from COC(=O)[C@@H](OC(C)(C)C)c1c(C)cc2nc(-c3cccc(-c4cc(F)c(F)cc4O)c3)cn2c1N1CCC(C)(OCCOC[C@@H](C)O)CC1, 10.0 mM, 0.5 h.
Setting [7] is: from COC(=O)[C@@H](OC(C)(C)C)c1c(C)cc2nc(-c3cccc(-c4c(O)cc(C)cc4F)c3)cn2c1N1CCC(C)(OCCOC[C@@H](C)O)CC1, 42.7 mM, 0.5 h, 2 steps.
[8] abbreviates: from COC(=O)[C@@H](OC(C)(C)C)c1c(C)cc2nc(-c3cccc(-c4cc(C)ccc4O)c3)cn2c1N1CCC(C)(OCCOC[C@@H](C)O)CC1, 39.2 mM, 18.0 h, 2 steps.

`COC(=O)[C@@H](OC(C)(C)C)c1c(C)cc2nc3cn2c1N1CCC(C)(CC1)OCCOC[C@H](C)Oc1cc(C)ccc1-c1cccc-3c1` returned a ring closure, isolated yield in data set [1] (setting [3]) of 65%. In data set [2] (setting [3]), this molecule displayed a ring closure, yield of all isomers of 65%.
`COC(=O)[C@@H](OC(C)(C)C)c1c(C)c(C)c2nc3cn2c1N1CCC(C)(CC1)OCCOC[C@H](C)Oc1cc(C)cc(F)c1-c1cccc-3c1` came in with a ring closure, isolated yield in data set [1] (setting [4]) of 81%. In data set [2] (setting [4]), this molecule displayed a ring closure, yield of all isomers of 81%.
In data set [1] (setting [5]), `COC(=O)[C@@H](OC(C)(C)C)c1c(C)c(C)c2nc3cn2c1N1CCC(C)(CC1)OCCOC[C@H](C)Oc1ccc(F)cc1-c1cccc-3c1` gave a ring closure, isolated yield of 59%. In addition, in data set [2] (setting [5]), the ring closure, yield of all isomers is 59%.
`COC(=O)[C@@H](OC(C)(C)C)c1c(C)cc2nc3cn2c1N1CCC(C)(CC1)OCCOC[C@H](C)Oc1cc(F)c(F)cc1-c1cccc-3c1` gave a ring closure, isolated yield in data set [1] (setting [6]) of 95%. Further, the ring closure, yield of all isomers in data set [2] (setting [6]) came out at 95%.
In data set [1] (setting [7]), `COC(=O)[C@@H](OC(C)(C)C)c1c(C)cc2nc3cn2c1N1CCC(C)(CC1)OCCOC[C@H](C)Oc1cc(C)cc(F)c1-c1cccc-3c1` registered a ring closure, isolated yield of 6%. Besides, the ring closure, yield of all isomers in data set [2] (setting [7]) was found to be 6%.
In data set [1] (setting [8]), `COC(=O)[C@@H](OC(C)(C)C)c1c(C)cc2nc3cn2c1N1CCC(C)(CC1)OCCOC[C@H](C)Oc1ccc(C)cc1-c1cccc-3c1` registered a ring closure, isolated yield of 65%. Besides, the ring closure, yield of all isomers in data set [2] (setting [8]) was found to be 65%.
